Where a chain is given by its changes, count along the chain named.
Columns and labels:
[1] = biological target: T1, RET^WT (Homo sapiens, UniProt P07949); assay: In vitro enzymatic activity assay on RET^WT (HTRF); format: biochemical; details: GST-RET^WT (658-1114 aa) 0.5 nM, ATP 25 μM
T1 construct: GST-RET^WT (658-1114 aa, final concentration of 0.5 nM)
T1 sequence (P07949 658-1114): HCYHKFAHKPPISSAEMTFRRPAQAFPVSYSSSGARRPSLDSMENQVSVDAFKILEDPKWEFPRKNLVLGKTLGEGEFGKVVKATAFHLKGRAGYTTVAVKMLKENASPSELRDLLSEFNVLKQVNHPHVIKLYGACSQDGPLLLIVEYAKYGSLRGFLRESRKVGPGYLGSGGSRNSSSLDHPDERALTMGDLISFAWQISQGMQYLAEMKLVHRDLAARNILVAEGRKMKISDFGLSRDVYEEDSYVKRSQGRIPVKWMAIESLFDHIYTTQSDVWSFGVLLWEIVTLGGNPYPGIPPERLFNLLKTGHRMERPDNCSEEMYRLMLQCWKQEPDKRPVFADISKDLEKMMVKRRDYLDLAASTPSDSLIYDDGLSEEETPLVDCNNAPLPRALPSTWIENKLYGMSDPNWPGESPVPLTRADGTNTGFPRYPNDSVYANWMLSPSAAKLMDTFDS
Experimental: 1. In Vitro Enzymatic Activity Assay for Compounds on RET^WT
The compounds were diluted 5-fold with 100% DMSO starting from 0.2 mM (7 concentrations in total), and 2 μL of each concentration was added to 48 μL of reaction buffer (50 mM HEPES pH7.5, 0.1 mM Na3VO4, 5 mM MgCl2. 1 mM DTT, 0.001% Tween 20, and 100 μg/ml BSA) for dilution and mixing.
The 384-well plate was placed in an incubator and reacted at 23° C. for 2 h before the reaction was stopped by the addition of 5 μL of TK Antibody (purchased from Cisbio) and 5 μL of Streptavidin-XL665 (purchased from Cisbio). […] The enzymatic activity signal of RET^WT was measured at 7 concentrations for each compound and the data were calculated using GraphPad Prism software to obtain the IC50 value for the compound.

[2] = biological target: T2, RET^V804M (Homo sapiens, UniProt P07949, V804M); assay: In vitro enzymatic activity assay on RET^V804M (HTRF); format: biochemical; details: GST-RET^V804M (658-1114 aa) 0.02 nM, ATP 1.5 μM
T2 construct: GST-RET^V804M (658-1114 aa, final concentration of 0.02 nM)
T2 sequence (P07949 658-1114 V804M): T1 sequence (P07949 658-1114) with V147M

[3] = biological target: VEGFR2 (Homo sapiens, UniProt P35968); assay: In vitro enzymatic activity assay on VEGFR2 (HTRF); format: biochemical; details: GST-VEGFR2 0.1 nM, ATP 2.5 μM
Experimental: 3. n Vitro Enzymatic Activity Assay for Compounds on VEGFR2
The compounds were diluted 5-fold with 100% DMSO starting from 1 mM (7 concentrations in total), and 2 μL of each concentration was added to 48 μL of reaction buffer (50 mM HEPES pH 7.5, 0.1 mM Na3VO4, 5 mM MgCl2, 1 mM MnCl2, 1 mM DTT, 0.001% Tween 20, and 100 μg/ml BSA) for dilution and mixing. 2.5 μL of compounds and 5 μL of GST-VEGFR2 (final concentration of 0.1 nM) were added to a 384-well plate (OptiPlate-384, purchased from PerkinElmer), the mixture was mixed by centrifugation, and 2.5 μL of ATP (final concentration of 2.5 μM) and TK Peptide Substrate mixture (final concentration of 1 μM, purchased from Cisbio) were added to start the reaction, with a total reaction volume of 10 μL. The 384-well plate was placed in an incubator and reacted at 23° C. for 1.5 h before the reaction was stopped by the addition of 5 μL of TK Antibody (purchased from Cisbio) and 5 μL of Streptavidin-XL665 (purchased from Cisbio). After further incubation in the incubator for 1 h. fluorescence values (excitation at 320 nm, detecting emitted light at 665 nm and 620 nm, and a ratio of the two as an enzyme activity signal) were read on Envision (purchased from PerkinElmer). The enzymatic activity signal of VEGFR2 was measured at 7 concentrations for each compound and the data were calculated using GraphPad Prism software to obtain the IC50 value for the compound.

[4] = tested on: TT cells; assay: TT cell proliferation activity (Cell-Titer Glo); format: cell-based; details: TT human thyroid carcinoma cells, 120 h
Experimental: 4. Determination of TT Cell Proliferation Activity of Compounds
TT cells, a human thyroid carcinoma cell line, were cultured in Ham's F-12K medium supplemented with 15% fetal bovine serum (FBS, purchased from Biological Industries, BI) and 1% penicillin/streptomycin double antibody (P/S, purchased from Life Technology) under conditions of 37° C. and 5% CO2. TT cells were plated in a 96-well plate (#3917 purchased from Corning) at a concentration of 5000 cells/195 μL/well the day before compound was detected. The compounds were diluted 3-fold with 100% DMSO starting from 10 mM (10 concentrations in total) after 24 h, and 2 μL of each concentration was diluted in 48 μL of Ham's F-12K medium. 5 μL of each diluted compound was added to the plated Cell suspension, the compound and cells were co-incubated in a cell incubator for 120 h (5 days), after the medium was aspirated. 25 μL of Cell-Titer Glo (G7570, purchased from Promega) reagent was added and re-incubated for 5-10 min. Fluorescence value was then read on Envision and the data were calculated using GraphPad Prism software to obtain IC50 values for inhibition of cell proliferation by the compounds.

[5] = Pharmacokinetic data of compounds in male SD rats; format: in vivo; details: rat, po, intragastric, 5 mg/kg, suspension MC 0.5%, plasma
Experimental: 6. Pharmacokinetic Data of Compounds
Male SD rats (Beijing Vital River Laboratory Animal Technology Co., Ltd) were divided into groups. 3 in each group, received intragastric administration with the suspension of the test sample (5 mg/kg, suspensions MC 0.5%), respectively. Animals were fasted overnight prior to the experiment from 10 h before dosing to 4 h after dosing. Blood was collected 0.25, 0.5, 1, 2, 4, 6, 8, and 24 h after administration, respectively. After isoflurane anesthesia using a small animal anesthesia machine, 0.3 mL of whole blood samples was taken through the fundus venous plexus, placed in a heparin anticoagulant tube, and were centrifuged at 4° C. 4000 rpm for 5 min plasma was transferred to the centrifuge tube, and stored at −80° C. until analysis. Samples in the plasma were extracted using protein precipitation and the extracts were analyzed by LC/MS.

Chain of VEGFR2 (P35968 20-1356): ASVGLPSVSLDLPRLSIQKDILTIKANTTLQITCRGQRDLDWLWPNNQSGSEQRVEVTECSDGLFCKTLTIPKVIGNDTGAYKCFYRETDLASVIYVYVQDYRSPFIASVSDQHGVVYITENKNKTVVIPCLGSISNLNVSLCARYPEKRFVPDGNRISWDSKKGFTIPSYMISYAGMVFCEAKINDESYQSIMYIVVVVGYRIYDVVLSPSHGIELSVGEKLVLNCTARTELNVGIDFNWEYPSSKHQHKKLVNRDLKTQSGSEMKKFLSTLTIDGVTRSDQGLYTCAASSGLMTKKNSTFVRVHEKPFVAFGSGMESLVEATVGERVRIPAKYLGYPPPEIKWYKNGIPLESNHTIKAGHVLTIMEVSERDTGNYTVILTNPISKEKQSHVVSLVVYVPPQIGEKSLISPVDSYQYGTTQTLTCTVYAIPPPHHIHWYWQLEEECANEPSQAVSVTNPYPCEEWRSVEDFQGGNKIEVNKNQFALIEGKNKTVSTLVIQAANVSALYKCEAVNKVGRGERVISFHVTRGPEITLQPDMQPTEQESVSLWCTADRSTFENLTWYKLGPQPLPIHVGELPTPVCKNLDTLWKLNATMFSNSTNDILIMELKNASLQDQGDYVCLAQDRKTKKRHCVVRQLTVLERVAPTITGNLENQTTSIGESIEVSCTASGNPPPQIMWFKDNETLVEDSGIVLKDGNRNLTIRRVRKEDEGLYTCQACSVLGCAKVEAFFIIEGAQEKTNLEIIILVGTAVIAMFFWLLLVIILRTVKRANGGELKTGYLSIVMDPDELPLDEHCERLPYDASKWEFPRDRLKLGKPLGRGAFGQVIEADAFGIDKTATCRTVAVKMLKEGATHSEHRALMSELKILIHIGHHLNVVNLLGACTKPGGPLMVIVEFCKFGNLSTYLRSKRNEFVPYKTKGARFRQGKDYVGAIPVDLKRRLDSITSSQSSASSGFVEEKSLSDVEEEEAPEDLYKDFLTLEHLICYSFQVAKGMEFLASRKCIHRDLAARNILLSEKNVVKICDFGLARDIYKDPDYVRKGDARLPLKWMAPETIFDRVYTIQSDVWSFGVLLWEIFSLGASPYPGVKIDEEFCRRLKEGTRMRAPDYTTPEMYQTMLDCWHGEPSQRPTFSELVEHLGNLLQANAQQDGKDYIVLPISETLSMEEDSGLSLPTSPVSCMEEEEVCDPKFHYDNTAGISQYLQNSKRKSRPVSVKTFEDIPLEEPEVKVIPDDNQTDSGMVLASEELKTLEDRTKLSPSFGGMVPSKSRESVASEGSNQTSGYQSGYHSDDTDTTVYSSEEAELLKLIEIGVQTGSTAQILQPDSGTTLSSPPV

CS(=O)(=O)c1ccc(CN2C3CC2CN(c2ccc(-c4cc(-c5cnn(C(F)F)c5)cn5ncc(C#N)c45)cn2)C3)nc1 [Example 78, 6-(1-(difluoromethyl)-1Hpyrazol-4-yl)-4-(6-(6-((5-(methylsulfonyl)pyridin-2-yl)methyl)-3,6-diazabicyclo[3.1.1]heptan-3-yl)pyridine-3-yl)pyrazolo[1,5-a]pyridine-3-carbonitrile] showed an IC50 [1] of 0.387 nM, an IC50 [2] of 1.04 nM and an IC50 [3] of 10.4 nM. For the same molecule, the IC50 [4] was 28.2 nM.
Molecule CS(=O)(=O)c1ccc(CN2C3CC2CN(c2ccc(-c4cc(-c5cnn(C(F)(F)F)c5)cn5ncc(C#N)c45)cn2)C3)cc1 [Example 84, 4-(6-(6-(4-(methylsulfonyl)benzyl)-3,64-diazabicyclo[3.1.1]heptan-3-yl)pyridin-3-yl)-6-(1-(trifluoromethyl)-1Hpyrazol-4-yl) pyrazolo[1,5-a] pyridine-3-carbonitrile] has an IC50 [1] of 0.309 nM, an IC50 [3] of 13.3 nM and an AUC(0-inf) [5] of 27.3 µg·h/mL. The Cmax [5] was 3.09 µg/mL, the Tmax [5] was 2 h and the half-life [5] was 2.78 h.
CS(=O)(=O)c1cccc(CN2C3CC2CN(c2ccc(-c4cc(N5CC(F)(F)C5)cn5ncc(C#N)c45)cn2)C3)c1 [Example 64, 6-(3,3-difluoroazetidin-1-yl)-4-(6-(6-(3-(methylsulfonyl)benzyl)-3,6-diazabicyclo[3.1.1]heptan-3-yl)pyridin-3-yl)pyrazolo[1,5-a]pyridine-3-carbonitrile] showed an IC50 [1] of 0.493 nM, an IC50 [2] of 1.71 nM and an IC50 [3] of 15.5 nM. The IC50 [4] was 42.2 nM.
In the case of CS(=O)(=O)c1ccc(CN2C3CC2CN(c2ccc(-c4cc(-c5cn[nH]c5)cn5ncc(C#N)c45)cn2)C3)cc1 [Example 53, 6-(1Hpyrazol-4-yl)-4-(6-(6-(4-(methylsulfonyl)benzyl)-3,6-diazabicyclo 13.1.11 heptan-3-yl)pyridin-3-yl)pyrazolo[1,5-a]pyridine-3-carbonitrile], the IC50 [1] is reported as 0.072 nM, the IC50 [2] is reported as 0.807 nM and the IC50 [3] is reported as 2.46 nM. It also gave an IC50 [4] of 14.6 nM.
With COc1ccc(CN2CCN(c3ccc(-c4cc(N5CC(C#N)C5)cn5ncc(C#N)c45)cn3)CC2)cn1 [Example 32, 6-(3-cyanoazetidin-1-yl)-4-(6-(4-((6-methoxypyridin-3-yl)methyl)piperazin-1-yl)pyridin-3-yl)pyrazolo[1,5-a]pyridine-3-carbonitrile] the IC50 [1] was 0.8 nM, the IC50 [2] was 3.19 nM and the IC50 [3] was 29.1 nM. The IC50 [4] was 48.7 nM.
For COc1ccc(CN2CCN(c3ccc(-c4cc(N5CC(F)(F)C5)cn5ncc(C#N)c45)cn3)CC2)cn1 [Example 26, 6-(3,3-difluoroazetidin-1-yl)-4-(6-(4-((6-methoxypyridin-3-yl)methyl)piperazin-1-yl)pyridin-3-yl)pyrazolo[1,5-a]pyridine-3-carbonitrile], the IC50 [1] was 0.422 nM, the IC50 [3] was 95.5 nM and the AUC(0-inf) [5] was 45 µg·h/mL. The Cmax [5] was 6 µg/mL, the Tmax [5] was 1.75 h and the half-life [5] was 4.9 h.
Work on CSCCN1CCN(c2ccc(-c3cc(-c4cnn(C)c4)cn4ncc(C#N)c34)cn2)CC1 [Example 21, 6-(1-methyl-1Hpyrazol-4-yl)-4-(6-(4-(2-(methylthio)ethyl)piperazin-1-yl)pyridin-3-yl)pyrazolo[1,5-a]pyridine-3-carbonitrile] yielded an IC50 [3] of 11.9 nM and an IC50 [4] of 27.9 nM.
For COc1ccc(CN2C3CC2CN(c2cnc(-c4cc(-c5cnn(C)c5)cn5ncc(C#N)c45)cn2)C3)cn1 [Example 3, 4-(5-(6-((6-methoxypyridin-3-yl)methyl)-3,6-diazabicyclo[3.1.1]heptan-3-yl)pyrazin-2-yl)-6-(1-methyl-1Hpyrazol-4-yl) pyrazolo[1,5-a]pyridine-3-carbonitride], the IC50 [3] was 3.01 nM and the IC50 [4] was 1.01 nM.
With Cn1cc(-c2cc(-c3cnc(N4CCN(Cc5ccc(S(C)(=O)=O)cc5)CC4)cn3)c3c(C#N)cnn3c2)cn1 [Example 42, 6-(1-methyl-1Hpyrazol-4-yl)-4-(5-(4-(4-(methylsulfonyl)benzyl)piperazin-1-yl)pyrazin-2-yl)pyrazolo[1,5-a]pyridine-3-carbonitrile] the IC50 [1] was 0.642 nM, the IC50 [3] was 42.5 nM and the IC50 [4] was 47.9 nM.
Work on COc1ccc(CN2C3CC2CN(c2ccc(-c4cc(N5CC(F)(F)C5)cn5ncc(C#N)c45)cn2)C3)nc1 [Example 46, 6-(3,3-difluoroazetidin-1-yl)-4-(6-(6-((5-methoxypyridin-2-yl)methyl)-3,6-diazabicyclo [3.1.1]heptan-3-yl)pyridin-3-yl) pyrazolo[1,5-a]pyridine-3-carbonitrile] yielded an IC50 [1] of 0.159 nM, an IC50 [3] of 17.2 nM and an IC50 [4] of 37.6 nM.
For COc1ccc(CN2C3CC2CN(c2ccc(-c4cc(N5CC(C#N)C5)cn5ncc(C#N)c45)cn2)C3)cn1 [Example 13, 6-(3-cyanoazetidin-1-yl)-4-(6-(6-((6-methoxypyridin-3-yl)methyl)-3,6-diazabicyclo[3.1.1]heptan-3-yl)pyridin-3-yl)pyrazolo[1,5-a]pyridine-3-carbonitrile], the IC50 [1] was 0.421 nM, the IC50 [2] was 0.332 nM and the IC50 [3] was 3.44 nM.
With CSc1ccc(CN2C3CCC2CN(c2ccc(-c4cc(-c5cnn(C(F)F)c5)cn5ncc(C#N)c45)cn2)C3)cn1 [Example 73, 6-(1-(difluoromethyl)-1Hpyrazol-4-yl)-4-(6-(8-((6-(methylthio)pyridin-3-yl)methyl)-3,8-diazabicyclo[3.2.1]octan-3-yl)pyridin-3-yl)pyrazolo[1,5-a]pyridine-3-carbonitrile] the IC50 [1] was 0.753 nM, the IC50 [2] was 5.89 nM and the IC50 [3] was 65.4 nM.
